# Source: patent US8410117B2, “Imidazopyrimidine derivatives” (Hoffmann-La Roche Inc., priority 2010, dated 2013)
# pIC50: −log10 of the molar value.
# Biological target: T1, human PDE10A (Homo sapiens, UniProt Q9Y233)
# T1 construct: The human PDE10A full length assay; purchased Enzo Life Science, Lausen, Switzerland SE-534
# Experiment: human PDE10A full length Scintillation Proximity Assay (SPA)
# Type: biochemical
# Details: 50 nM cGMP and 50 nM [3H]-cGMP, 20 minutes at room temperature; read-out: PDE10A inhibition IC50
# Procedure: The following test was carried out in order to determine the activity of the compounds of the present invention. PDE10 activity of the compounds of the present invention was determined using a Scintillation Proximity Assay (SPA)-based method similar to the one previously described (Fawcett, L. et al., Proc Natl Acad Sci USA (2000) 97(7):3702-3707).
# The human PDE10A full length assay was performed in 96-well micro titer plates. The reaction mixture of 50 μl contained 20 mM HEPES pH=7.5/10 mM MgCl2/0.05 mg/ml BSA (Sigma cat. #A-7906), 50 nM cGMP (Sigma, cat. #G6129) and 50 nM [^3H]-cGMP (GE Healthcare, cat. #TRK392 S.A. 13.2 Ci/mmol), 3.75 ng/well PDE10A enzyme (Enzo Life Science, Lausen, Switzerland cat #SE-534) with or without a specific test compound. A range of concentrations of the potential inhibitor was used to generate data for calculating the concentration of inhibitor resulting in 50% of the effect (e.g. IC50, the concentration of the competitor inhibiting PDE10A activity by 50%). Non-specific activity was tested without the enzyme. The reaction was initiated by the addition of the substrate solution (cGMP and [^3H]-cGMP) and allowed to progress for 20 minutes at room temperature. The reaction was terminated by adding 25 μl of YSi-SPA scintillation beads (GE Healthcare, cat. #RPNQ0150) in 18 mM zinc sulphate solution (stop reagent). After 1 h under shaking, the plate was centrifuged one minute at 170 g to allow beads to settle. Afterwards, radioactive counts were measured on a Perkin Elmer TopCount Scintillation plate reader.
# T1 sequence (Q9Y233 1-779 isoform Q9Y233-1): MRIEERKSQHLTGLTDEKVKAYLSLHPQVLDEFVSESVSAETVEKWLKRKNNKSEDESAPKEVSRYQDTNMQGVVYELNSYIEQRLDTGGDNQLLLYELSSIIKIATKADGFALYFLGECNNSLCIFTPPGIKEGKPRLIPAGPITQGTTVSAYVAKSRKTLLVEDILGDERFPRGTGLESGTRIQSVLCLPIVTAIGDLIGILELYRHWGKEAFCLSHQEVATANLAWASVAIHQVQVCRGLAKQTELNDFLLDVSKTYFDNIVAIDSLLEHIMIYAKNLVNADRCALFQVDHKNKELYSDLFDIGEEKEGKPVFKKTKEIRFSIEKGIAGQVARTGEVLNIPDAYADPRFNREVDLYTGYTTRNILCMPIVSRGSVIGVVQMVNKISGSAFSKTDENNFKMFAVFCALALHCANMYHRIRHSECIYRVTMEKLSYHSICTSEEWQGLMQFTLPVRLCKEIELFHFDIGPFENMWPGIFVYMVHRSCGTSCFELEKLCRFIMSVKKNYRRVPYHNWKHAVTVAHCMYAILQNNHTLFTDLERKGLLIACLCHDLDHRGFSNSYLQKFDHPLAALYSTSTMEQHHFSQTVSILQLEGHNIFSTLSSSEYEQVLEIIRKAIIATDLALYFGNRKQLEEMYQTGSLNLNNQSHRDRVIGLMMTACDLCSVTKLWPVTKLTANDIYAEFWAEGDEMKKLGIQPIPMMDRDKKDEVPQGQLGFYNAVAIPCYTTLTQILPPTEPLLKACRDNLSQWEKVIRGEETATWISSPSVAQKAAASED
row,SMILES,pIC50
1,"O=C(Nc1ccn2cc(-c3ccccc3)nc2n1)c1ccno1 [Example 2, Isoxazole-5-carboxylic acid (2-phenyl-imidazo[1,2-a]pyrimidin-7-yl)-amide]",6.02
2,"Cc1nn(C)c(C(=O)Nc2ccn3cc(-c4ccccc4)nc3n2)c1Cl [Example 3, 4-Chloro-2,5-dimethyl-2H-pyrazole-3-carboxylic acid (2-phenyl-imidazo[1,2-a]pyrimidin-7-yl)-amide]",7.01
3,"O=C(Nc1ccn2cc(-c3ccccc3)nc2n1)c1ccnn1-c1ccccc1 [Example 4, 2-Phenyl-2H-pyrazole-3-carboxylic acid (2-phenyl-imidazo[1,2-a]pyrimidin-7-yl)-amide]",6.17
4,"Cc1nn(C)c(C(=O)Nc2ccn3cc(-c4ccccc4)nc3n2)c1Br [Example 5, 4-Bromo-2,5-dimethyl-2H-pyrazole-3-carboxylic acid (2-phenyl-imidazo[1,2-a]pyrimidin-7-yl)-amide]",7.57
5,"Cn1ncc(Br)c1C(=O)Nc1ccn2cc(-c3ccccc3)nc2n1 [Example 6, 4-Bromo-2-methyl-2H-pyrazole-3-carboxylic acid (2-phenyl-imidazo[1,2-a]pyrimidin-7-yl)-amide]",6.42
6,"CCn1ncc(Cl)c1C(=O)Nc1ccn2cc(-c3ccccc3)nc2n1 [Example 7, 4-Chloro-2-ethyl-2H-pyrazole-3-carboxylic acid (2-phenyl-imidazo[1,2-a]pyrimidin-7-yl)-amide]",6.85
7,"CCCn1ncc(Cl)c1C(=O)Nc1ccn2cc(-c3ccccc3)nc2n1 [Example 8, 4-Chloro-2-propyl-2H-pyrazole-3-carboxylic acid (2-phenyl-imidazo[1,2-a]pyrimidin-7-yl)-amide]",7.19
8,"CCCCn1ncc(Cl)c1C(=O)Nc1ccn2cc(-c3ccccc3)nc2n1 [Example 9, 2-Butyl-4-chloro-2H-pyrazole-3-carboxylic acid (2-phenyl-imidazo[1,2-a]pyrimidin-7-yl)-amide]",7.35
9,"CC(C)n1ncc(Cl)c1C(=O)Nc1ccn2cc(-c3ccccc3)nc2n1 [Example 10, 4-Chloro-2-isopropyl-2H-pyrazole-3-carboxylic acid (2-phenyl-imidazo[1,2-a]pyrimidin-7-yl)-amide]",6.98
10,"CCC(C)n1ncc(Cl)c1C(=O)Nc1ccn2cc(-c3ccccc3)nc2n1 (stereo not shown) [Example 11, 2-sec-Butyl-4-chloro-2H-pyrazole-3-carboxylic acid (2-phenyl-imidazo[1,2-a]pyrimidin-7-yl)-amide]",6.98
11,"CC(C)Cn1ncc(Cl)c1C(=O)Nc1ccn2cc(-c3ccccc3)nc2n1 [Example 12, 4-Chloro-2-isobutyl-2H-pyrazole-3-carboxylic acid (2-phenyl-imidazo[1,2-a]pyrimidin-7-yl)-amide]",7.73
12,"CC(C)Cn1nc([N+](=O)[O-])cc1C(=O)Nc1ccn2cc(-c3ccccc3)nc2n1 [Example 13, 2-Isobutyl-5-nitro-2H-pyrazole-3-carboxylic acid (2-phenyl-imidazo[1,2-a]pyrimidin-7-yl)-amide]",7.32
13,"O=C(Nc1ccn2cc(-c3ccccc3)nc2n1)c1cc([N+](=O)[O-])nn1C1CCCC1 [Example 14, 2-Cyclopentyl-5-nitro-2H-pyrazole-3-carboxylic acid (2-phenyl-imidazo[1,2-a]pyrimidin-7-yl)-amide]",6.90
14,"CCn1nc([N+](=O)[O-])cc1C(=O)Nc1ccn2cc(-c3ccccc3)nc2n1 [Example 15, 2-Ethyl-5-nitro-2H-pyrazole-3-carboxylic acid (2-phenyl-imidazo[1,2-a]pyrimidin-7-yl)-amide]",6.13
15,"CC(C)n1nc([N+](=O)[O-])cc1C(=O)Nc1ccn2cc(-c3ccccc3)nc2n1 [Example 16, 2-Isopropyl-5-nitro-2H-pyrazole-3-carboxylic acid (2-phenyl-imidazo[1,2-a]pyrimidin-7-yl)-amide]",7.09
16,"Cc1ccc(C)c(C(=O)Nc2ccn3cc(-c4ccccc4)nc3n2)n1 [Example 17, 3,6-Dimethyl-pyridine-2-carboxylic acid (2-phenyl-imidazo[1,2-a]pyrimidin-7-yl)-amide]",7.55
17,"O=C(Nc1ccn2cc(-c3ccccc3)nc2n1)c1noc2c1CCCC2 [Example 18, 4,5,6,7-Tetrahydro-benzo[d] isoxazole-3-carboxylic acid (2-phenyl-imidazo[1,2-a]pyrimidin-7-yl)-amide]",6.83
18,"O=C(Nc1ccn2cc(-c3ccccc3)nc2n1)c1ccnc(Cl)c1 [Example 19, 2-Chloro-N-(2-phenyl-imidazo[1,2-a]pyrimidin-7-yl)-isonicotinamide]",6.26
19,"Cn1ncc(-c2ccno2)c1C(=O)Nc1ccn2cc(-c3ccccc3)nc2n1 [Example 20, 4-Isoxazol-5-yl-2-methyl-2H-pyrazole-3-carboxylic acid (2-phenyl-imidazo[1,2-a]pyrimidin-7-yl)-amide]",6.19
20,"O=C(Nc1ccn2cc(-c3ccccc3)nc2n1)c1cccc(Cl)n1 [Example 21, 6-Chloro-pyridine-2-carboxylic acid (2-phenyl-imidazo[1,2-a]pyrimidin-7-yl)-amide]",6.50
21,"COc1cccc(C(=O)Nc2ccn3cc(-c4ccccc4)nc3n2)n1 [Example 22, 6-Methoxy-pyridine-2-carboxylic acid (2-phenyl-imidazo[1,2-a]pyrimidin-7-yl)-amide]",7.38
22,"Cc1cc(Br)cnc1C(=O)Nc1ccn2cc(-c3ccccc3)nc2n1 [Example 23, 5-Bromo-3-methyl-pyridine-2-carboxylic acid (2-phenyl-imidazo[1,2-a]pyrimidin-7-yl)-amide]",7.19
23,"Cc1cc(Br)c(C)c(C(=O)Nc2ccn3cc(-c4ccccc4)nc3n2)n1 [Example 24, 4-Bromo-3,6-dimethyl-pyridine-2-carboxylic acid (2-phenyl-imidazo[1,2-a]pyrimidin-7-yl)-amide]",6.49
24,"Cc1cccc(C(=O)Nc2ccn3cc(-c4ccccc4)nc3n2)n1 [Example 25, 6-Methyl-pyridine-2-carboxylic acid (2-phenyl-imidazo[1,2-a]pyrimidin-7-yl)-amide]",6.49
25,"COC(=O)c1[nH]nnc1C(=O)Nc1ccn2cc(-c3ccccc3)nc2n1 [Example 26, 5-(2-Phenyl-imidazo[1,2-a]pyrimidin-7-ylcarbamoyl)-3H-[1,2,3]triazole-4-carboxylic acid methyl ester]",7.62
26,"O=C(Nc1ccn2cc(-c3ccccc3)nc2n1)c1nn[nH]c1C(=O)N1CCC1 [Example 27, 5-(Azetidine-1-carbonyl)-1H-[1,2,3]triazole-4-carboxylic acid (2-phenyl-imidazo[1,2-a]pyrimidin-7-yl)-amide]",6.79
27,"CCN(C)C(=O)c1[nH]nnc1C(=O)Nc1ccn2cc(-c3ccccc3)nc2n1 [Example 28, 1H-[1,2,3]Triazole-4,5-dicarboxylic acid 5-(ethyl-methyl-amide) 4-[(2-phenyl-imidazo[1,2-a]pyrimidin-7-yl)-amide]]",6.60
28,"Cn1ncc(C(=O)N2CCC2)c1C(=O)Nc1ccn2cc(-c3ccccc3)nc2n1 [Example 29, 4-(Azetidine-1-carbonyl)-2-methyl-2H-pyrazole-3-carboxylic acid (2-phenyl-imidazo[1,2-a]pyrimidin-7-yl)-amide]",8.48
